Source: paper PMC3041239 (Journal of Medicinal Chemistry, 2011)
Marks after values point to notes of the source that are not given here.

What was measured:
rats [1] = experiment: Tail-flick test in the rat after sc administration; type: in vivo; details: pair 15 vs 16
human μ opioid receptor = human μ opioid receptor (Homo sapiens, UniProt P35372); type: biochemical
rats [2] = details: rat, cited from earlier work
μ opioid receptor = details: first value of μ:δ:κ; cited from earlier work
δ opioid receptor = details: second value of μ:δ:κ; cited from earlier work
κ opioid receptor = details: third value of μ:δ:κ; cited from earlier work
[3] = sc administration; cited from earlier work

Chain of human μ opioid receptor (P35372 whole entry): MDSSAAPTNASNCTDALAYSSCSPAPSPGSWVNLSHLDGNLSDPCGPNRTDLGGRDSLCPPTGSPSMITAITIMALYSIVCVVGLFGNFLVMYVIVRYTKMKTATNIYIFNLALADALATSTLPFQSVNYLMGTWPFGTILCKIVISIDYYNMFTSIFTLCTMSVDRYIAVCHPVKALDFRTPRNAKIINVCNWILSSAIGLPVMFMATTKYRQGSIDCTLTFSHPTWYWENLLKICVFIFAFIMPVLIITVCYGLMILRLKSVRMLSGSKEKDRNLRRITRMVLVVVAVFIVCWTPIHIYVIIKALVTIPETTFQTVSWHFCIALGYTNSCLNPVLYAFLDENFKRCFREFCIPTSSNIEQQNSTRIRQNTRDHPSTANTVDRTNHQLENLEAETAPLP

Structure (SMILES)	functional character at the μ receptor (human μ opioid receptor)	ED50 (nmol/kg, sc), time after drug administration 0.5 h (rats [2])	ED50 (nmol/kg, sc), time after drug administration 1 h (rats [2])	ED50 (nmol/kg, sc), time after drug administration 2 h (rats [2])	also measured
CC(C)(C)OC(=O)CN[C@@H]1CC[C@@]2(OCCCc3ccccc3)[C@H]3Cc4ccc(O)c5c4[C@@]2(CCN3CC2CC2)[C@H]1O5 [Compound 16]					difference in the potency between α and β epimers (rats [1]): 13 fold
Cl.Cl.O=C(O)CN[C@@H]1CC[C@@]2(OCCCc3ccccc3)[C@H]3Cc4ccc(O)c5c4[C@@]2(CCN3CC2CC2)[C@H]1O5 [Compound 18, [[17-Cyclopropylmethyl-4,5α-epoxy-3-hydroxy-14β-[(3-phenylpropyl)oxy]morphinan-6β-yl]amino]acetic Acid Dihydrochloride]	highly potent partial agonists				
CO[C@@]12CC[C@H](NCC(=O)O)[C@@H]3Oc4c(O)ccc5c4[C@@]31CCN(C)[C@@H]2C5 [Compound 9]		137 nmol/kg	58.5 ^c nmol/kg	143 nmol/kg	ED50 (nmol/kg, sc), time after drug administration 3 h (rats [2]; 3 h): 437 nmol/kg
O=C1CC[C@@]2(O)[C@H]3Cc4ccc(O)c5c4[C@@]2(CCN3CC2CC2)[C@H]1O5 [naltrexone]					binding affinity μ (μ opioid receptor): 0.20; binding affinity δ (δ opioid receptor): 8.70; binding affinity κ (κ opioid receptor): 0.40
CO[C@@]12CC[C@@H](NCC(=O)O)[C@@H]3Oc4c(O)ccc5c4[C@@]31CCN(C)[C@@H]2C5 [Compound 10, 2-[(4,5α-Epoxy-3-hydroxy-14β-methoxy-17-methylmorphinan-6β-yl)amino] acetic Acid]		50.8 nmol/kg	29.0 ^c nmol/kg	43.3 nmol/kg	antinociceptive potency lower than that of 14-O-methyloxymorphone (1) [3]: 2 fold
Cl.Cl.O=C(O)CN[C@H]1CC[C@@]2(OCCCc3ccccc3)[C@H]3Cc4ccc(O)c5c4[C@@]2(CCN3CC2CC2)[C@H]1O5 [Compound 17, [[17-Cyclopropylmethyl-4,5α-epoxy-3-hydroxy-14β-[(3-phenylpropyl)oxy]morphinan-6α-yl]amino]acetic Acid Dihydrochloride]	highly potent partial agonists				
